Laboratory results reported in patent US12371454B2, “Cyclic peptide compound having Kras inhibitory action” (priority 2019, dated 2025).
Starred links: 1 amine or outer side, 2 acyl side, 3 side chain; linkers in the order of their positions; H or OH if unused. Positions of bridges follow the written chain, without caps; N, C: chain ends. Non-standard residues stand in square brackets, D forms with d. Residues, ends and D or L forms follow the SMILES beside them. *: point of attachment. hPhe(3-Cl-4-CF3) = N[C@@H](CCc1ccc(C(F)(F)F)c(Cl)c1)C(=O)O; hPhe(3-F,4-CF3) = N[C@@H](CCc1ccc(C(F)(F)F)c(F)c1)C(=O)O; X12 = CN([C@@H](Cc1ccc(C(F)(F)F)nc1)C(=O)[*:2])[*:1]; hPhe(4-CF3) = N[C@@H](CCc1ccc(C(F)(F)F)cc1)C(=O)O; NMePhe(4-Cl) = CN[C@@H](Cc1ccc(Cl)cc1)C(=O)O; Phe(3,5-F2) = N[C@@H](Cc1cc(F)cc(F)c1)C(=O)O; NMePhe(4-Me) = CN[C@@H](Cc1ccc(C)cc1)C(=O)O; NMeGly(cPent) = CN[C@H](C(=O)O)C1CCCC1; Phe(3-I) = N[C@@H](Cc1cccc(I)c1)C(=O)O; NMeCha = CN[C@@H](CC1CCCCC1)C(=O)O; NMeGly(cPr) = CN[C@H](C(=O)O)C1CC1; NMeChg = CN[C@H](C(=O)O)C1CCCCC1; NMeF = CN[C@@H](Cc1ccccc1)C(=O)O; NMeI = CC[C@H](C)[C@H](NC)C(=O)O; hPhe = N[C@@H](CCc1ccccc1)C(=O)O; NMeD = CN[C@@H](CC(=O)O)C(=O)O; NMeL = CN[C@@H](CC(C)C)C(=O)O; NMeV = CN[C@H](C(=O)O)C(C)C; d(β3hA) = C[C@@H](N)CC(=O)O; NMeS = CN[C@@H](CO)C(=O)O; Morpholide = C1CN(*)CCO1; NMeA = CN[C@@H](C)C(=O)O; NMeAib = CNC(C)(C)C(=O)O; Piperidide = C1CCN(*)CC1; Pyrrolidide = C1CCN(*)C1; Ac5c = NC1(C(=O)O)CCCC1; Aze = O=C(O)[C@@H]1CCN1; Sar = CNCC(=O)O; Propyl = CCC*

Target: T1, Kras and SOS1 (biotin-tagged human Kras loaded with GDP, His-tagged human SOS1) (Homo sapiens, UniProt P01116, G12D)
T1 construct: made in house; host or cells: E. coli (stated for Kras only)
T1 sequence (P01116 1-188 isoform P01116-2 G12D): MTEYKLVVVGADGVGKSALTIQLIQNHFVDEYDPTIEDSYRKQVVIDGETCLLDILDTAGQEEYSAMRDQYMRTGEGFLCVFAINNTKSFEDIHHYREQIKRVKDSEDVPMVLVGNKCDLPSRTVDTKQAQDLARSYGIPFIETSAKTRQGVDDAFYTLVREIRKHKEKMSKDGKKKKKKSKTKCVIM
Experiment: Protein-protein interaction inhibition between Kras and SOS1 (KrasGl2D-SOS PPI) using AlphaScreen
Assay type: binding
Details: AlphaScreen; biotin-tagged human Kras loaded with GDP, His-tagged human SOS1; read-out: KRAS G12D-SOS PPI IC50
Description: Protein-Protein Interaction Inhibition Between Kras and SOS1 (KrasGl2D-SOS PPI) Using AlphaScreen
Protein-protein interaction inhibition (PPI) between Kras and SOS1 was measured by energy transfer from nickel-conjugated donor beads to streptavidin-conjugated acceptor beads using biotin-tagged human Kras expressed in E. coli and loaded with GDP after purification and His-tagged human SOS1 enzyme. This measurement utilizes the phenomenon in which donor beads are irradiated with light at 680 nm, such that energy is transferred to acceptor beads through singlet oxygen and light at 520-620 nm is detected from the acceptor beads.
Inhibition of binding between K-ras and SOS1 is known to inhibit signaling downstream of Kras.

In the case of `CC[C@H](C)[C@@H]1NC(=O)[C@H](CC(C)C)N(C)C(=O)C[C@@H](C(=O)N(C)C)N(C)C(=O)[C@H]([C@@H](C)CC)N(C)C(=O)[C@H](C(C)C)NC(=O)[C@H](C)N(C)C(=O)[C@H](CCc2ccc(C(F)(F)F)c(Cl)c2)NC(=O)CN(C)C(=O)[C@H](Cc2ccc(C)cc2)N(C)C(=O)[C@@H]2CCN2C(=O)[C@H](C)N(C)C1=O` [Compound 4] ([NMeL]I[NMeA][Aze][NMePhe(4-Me)][Sar][hPhe(3-Cl-4-CF3)][NMeA]V[NMeI][NMeD]-NMe2; lactam N-11), the IC50 is reported as 13 nM.
In the case of `CC[C@H](C)[C@@H]1NC(=O)[C@H](CC(C)C)N(C)C(=O)C[C@@H](C(=O)N2CCCCC2)N(C)C(=O)[C@H](C2CCCCC2)N(C)C(=O)C2(CCCC2)NC(=O)[C@H](Cc2ccc(C(F)(F)F)nc2)N(C)C(=O)[C@H](CCc2ccc(C(F)(F)F)c(Cl)c2)NC(=O)CN(C)C(=O)[C@H](CC2CCCCC2)N(C)C(=O)[C@@H]2CCN2C(=O)CN(C)C1=O` [Compound 6] ([NMeL]I[Sar][Aze][NMeCha][Sar][hPhe(3-Cl-4-CF3)][X12][Ac5c][NMeChg][NMeD]-Piperidide; lactam N-11), the IC50 is reported as 13 nM.
In the case of `COC[C@@H]1NC(=O)[C@H](CC(C)C)N(C)C(=O)C[C@@H](C(=O)N2CCCCC2)N(C)C(=O)[C@H](C(C)C)N(C)C(=O)C2(CCCC2)NC(=O)[C@@H]2CCCN2C(=O)[C@H](CCc2ccc(C(F)(F)F)c(Cl)c2)NC(=O)CN(C)C(=O)[C@H](CC2CCCCC2)N(C)C(=O)[C@@H]2CCN2C(=O)[C@H](C)N(C)C1=O` [Compound 7] ([NMeL]S(Me)[NMeA][Aze][NMeCha][Sar][hPhe(3-Cl-4-CF3)]P[Ac5c][NMeV][NMeD]-Piperidide; lactam N-11), the IC50 is reported as 18 nM.
For `CCCOC[C@H]1C(=O)N(C)CC(=O)N[C@@H](CCc2ccc(C(F)(F)F)c(F)c2)C(=O)N2CCC[C@H]2C(=O)NC2(CCCC2)C(=O)N(C)[C@@H](C2CCCC2)C(=O)N(C)[C@H](C(=O)N2CCOCC2)CC(=O)N(C)[C@@H](CC(C)C)C(=O)N[C@@H]([C@@H](C)CC)C(=O)N(C)[C@@H](C)C(=O)N2CC[C@H]2C(=O)N1C` [Compound 9, (5S,8S,11S,15S,18S,23aS,29S,35S,37aS)-8-((S)-sec-butyl)-18-cyclopentyl-29-(3-fluoro-4-(trifluoromethyl)phenethyl)-11-isobutyl-5,6,12,16,19,33,36-heptamethyl-15-(morpholine-4-carbonyl)-35-(propoxymethyl)docosahydro-2H,4H-spiro[azeto[2,1-u]pyrrolo[2,1-i][1,4,7,10,13,16,19,22,25,28,31]undecaazacyclotetratriacontine-21,1′-cyclopentan]-4,7,10,13,17,20,23,28,31,34,37(14H,22H)-undecaone] ([NMeL]I[NMeA][Aze][NMeS](Propyl)[Sar][hPhe(3-F,4-CF3)]P[Ac5c][NMeGly(cPent)][NMeD]-Morpholide; lactam N-11), the IC50 was 1.5 nM.
In the case of `CC[C@H](C)[C@@H]1NC(=O)[C@H](CC(C)C)N(C)C(=O)C[C@@H](C(=O)N2CCCCC2)N(C)C(=O)[C@H](CC(C)C)NC(=O)C(C)(C)N(C)C(=O)[C@H](CCc2ccccc2)NC(=O)[C@H](Cc2cccc(I)c2)NC(=O)CN(C)C(=O)[C@H](Cc2ccc(C)cc2)N(C)C(=O)CN(C)C(=O)CN(C)C1=O` [Compound 13] ([NMeL]I[Sar][Sar][NMePhe(4-Me)][Sar][Phe(3-I)][hPhe][NMeAib]L[NMeD]-Piperidide; lactam N-11), the IC50 is reported as 38 nM.
Work on `CC[C@H](C)[C@@H]1NC(=O)[C@H](CC(C)C)N(C)C(=O)C[C@@H](C)NC(=O)[C@H](C2CC2)N(C)C(=O)C2(CCCC2)NC(=O)[C@@H]2CCCN2C(=O)[C@H](CCc2ccc(C(F)(F)F)c(Cl)c2)NC(=O)CN(C)C(=O)[C@H](CC2CCCCC2)N(C)C(=O)CN(C)C(=O)CN(C)C1=O` [Compound 14] (cyclo([Ac5c][NMeGly(cPr)][d(β3hA)][NMeL]I[Sar][Sar][NMeCha][Sar][hPhe(3-Cl-4-CF3)]P)) yielded an IC50 of 110 nM.
Work on `CC[C@H](C)[C@@H]1NC(=O)[C@H](C)N(C)C(=O)C[C@@H](C)NC(=O)[C@H](CC(C)C)N(C)C(=O)[C@H](Cc2ccccc2)N(C)C(=O)[C@@H]2CCCN2C(=O)[C@H](CCc2ccc(C(F)(F)F)cc2)NC(=O)CN(C)C(=O)[C@H]([C@@H](C)CC)N(C)C(=O)CN(C)C(=O)CN(C)C1=O` [Compound 18] (cyclo(I[Sar][Sar][NMeI][Sar][hPhe(4-CF3)]P[NMeF][NMeL][d(β3hA)][NMeA])) yielded an IC50 of 230 nM.
Work on `CC[C@H](C)[C@@H]1NC(=O)[C@H](C)N(C)C(=O)C[C@@H](C(=O)N2CCCC2)NC(=O)[C@H](C(C)C)N(C)C(=O)[C@H](Cc2ccccc2)N(C)C(=O)[C@H](Cc2ccccc2)NC(=O)[C@H](Cc2cc(F)cc(F)c2)NC(=O)CN(C)C(=O)[C@H](Cc2ccc(Cl)cc2)N(C)C(=O)CN(C)C(=O)CN(C)C1=O` [Compound 21] ([NMeA]I[Sar][Sar][NMePhe(4-Cl)][Sar][Phe(3,5-F2)]F[NMeF][NMeV]D-Pyrrolidide; lactam N-11) yielded an IC50 of 250 nM.
